Results reported in US8119628B2, “Pyrrolidine fused indolobenzadiazepine HCV NS5B inhibitors” (Bristol-Myers Squibb Company, priority 2008, dated 2012).

Assays:
HCV NS5B = target: T1, HCV NS5B (Hepatitis C virus genotype 1b, UniProt Q9WMX2); assay: Modified HCV NS5B RdRp enzyme assay (preincubation protocol); assay type: biochemical; settings: HCV NS5B RdRp genotype 1b
T1 construct: The protein was expressed with an 18 amino acid C-terminal truncation to enhance the solubility; made in house; host or cells: E. coli BL21(DE3)
Description: HCV NS5B RdRp cloning, expression, and purification. The cDNA encoding the NS5B protein of HCV, genotype 1b, was cloned into the pET21a expression vector. The protein was expressed with an 18 amino acid C-terminal truncation to enhance the solubility. The E. coli competent cell line BL21(DE3) was used for expression of the protein. Cultures were grown at 37° C. for ˜4 hours until the cultures reached an optical density of 2.0 at 600 nm. The cultures were cooled to 20° C. and induced with 1 mM IPTG. Fresh ampicillin was added to a final concentration of 50 μg/ml and the cells were grown overnight at 20° C.
Cell pellets (3 L) were lysed for purification to yield 15-24 […] of purified NS5B. The lysis buffer consisted of 20 mM Tris-HCl, pH 7.4, 500 mM NaCl, 0.5% triton X-100, 1 mM DTT, 1 mM EDTA, 20% glycerol, 0.5 mg/ml lysozyme, 10 mM MgCl2, 15 ug/ml deoxyribonuclease I, and Complete TM protease inhibitor tablets (Roche). After addition of the lysis buffer, frozen cell pellets were resuspended using a tissue homogenizer. To reduce the viscosity of the sample, aliquots of the lysate were sonicated on ice using a microtip attached to a Branson sonicator. The sonicated lysate was centrifuged at 100,000×g for 1 hr at 4° C. and filtered through a 0.2 μm filter unit (Corning).
The protein was purified using three sequential chromatography steps: Heparin sepharose CL-6B, polyU sepharose 4B, and Hitrap SP sepharose (Pharmacia). The chromatography buffers were identical to the lysis buffer but contained no lysozyme, deoxyribonuclease I, MgCl2 or protease inhibitor and the NaCl concentration of the buffer was adjusted according to the requirements for charging the protein onto the column. Each column was eluted with a NaCl gradient which varied in length from 5-50 column volumes depending on the column type. After the final chromatography step, the resulting purity of the enzyme is >90% based on SDS-PAGE analysis. The enzyme was aliquoted and stored at −80° C.
Standard HCV NS5B RdRp enzyme assay. HCV RdRp genotype 1b assays were run in a final volume of 60 μl in 96 well plates (Costar 3912). The assay buffer is composed of 20 mM Hepes, pH 7.5, 2.5 mM KCl, 2.5 mM MgCl2, 1 mM DTT, 1.6 U RNAse inhibitor (Promega N2515), 0.1 mg/ml BSA (Promega R3961), and 2% glycerol. All compounds were serially diluted (3-fold) in DMSO and diluted further in water such that the final concentration of DMSO in the assay was 2%. HCV RdRp genotype 1b enzyme was used at a final concentration of 28 nM. A polyA template was used at 6 nM, and a biotinylated oligo-dT12 primer was used at 180 nM final concentration. Template was obtained commercially (Amersham 27-4110). Biotinylated primer was prepared by Sigma Genosys. 3H-UTP was used at 0.6 μCi (0.29 μM total UTP). Reactions were initiated by the addition of enzyme, incubated at 30° C. for 60 min, and stopped by adding 25 μl of 50 mM EDTA containing SPA beads (4 μg/μl, Amersham RPNQ 0007). Plates were read on a Packard Top Count NXT after >1 hr incubation at room temperature.
Modified HCV NS5B RdRp enzyme assay. A modified enzyme assay was performed essentially as described for the standard enzyme assay except for the following: The biotinylated oligo dTl2 primer was precaptured on streptavidin-coated SPA beads by mixing primer and beads in assay buffer and incubating at room temperature for one hour. Unbound primer was removed after centrifugation. The primer-bound beads were resuspended in 20 mM Hepes buffer, pH 7.5 and used in the assay at final concentrations of 20 nM primer and […] beads. Order of addition in the assay: enzyme (14 nM) was added to diluted compound followed by the addition of a mixture of template (0.2 nM), 3H-UTP (0.6 μCi, 0.29 μM), and primer-bound beads, to initiate the reaction; concentrations given are final. Reactions were allowed to proceed for 4 hours at 30° C.
IC50 values for compounds were determined using seven different. […]

HCV replicon cells = assay: HCV FRET assay in HCV replicon cells; assay type: cell-based; settings: Hepatitis C virus
Excerpt: FRET Assay Preparation. To perform the HCV FRET screening assay, 96-well cell culture plates were used. The FRET peptide (Anaspec, Inc.) (Taliani et al., Anal. Biochem. 1996, 240, 60-67) contains a fluorescence donor, EDANS, near one end of the peptide and an acceptor, DABCYL, near the other end. The fluorescence of the peptide is quenched by […] resonance energy transfer (RET) between the donor and the acceptor, but as the NS3 protease cleaves the peptide the products are released from RET quenching and the fluorescence of the donor becomes apparent. The assay reagent was made as follows: 5× cell Luciferase cell culture lysis reagent from Promega (#E153A) diluted to 1× with dH2O, NaCl added to 150 mM final, the FRET peptide diluted to 20 uM final from a 2 mM stock.
To prepare plates, HCV replicon cells, with or without a Renilla luciferase reporter gene, were trypsinized and placed into each well of a 96-well plate with titrated test compounds added in columns 3 through 12; columns 1 and 2 contained a control compound (HCV protease inhibitor), and the bottom row contained cells without compound. The plates were then placed in a CO2 incubator at 37° C.
Assays. Subsequent to addition of the test compounds described above (FRET Assay Preparation), at various times the plate was removed and Alamar blue solution (Trek Diagnostics, #00-100) was added per well as a measure of cellular toxicity. After reading in a Cytoflour 4000 instrument (PE Biosystems), plates were rinsed with PBS and then used for FRET assay by the addition of 30 ul of the FRET peptide assay reagent described above (FRET Assay Preparation) per well. The plate was then placed into the Cytoflour 4000 instrument which had been set to 340 excite/490 emission, automatic mode for 20 cycles and the plate read in a kinetic mode. Typically, the signal to noise using an endpoint analysis after the reads was at least three-fold. Alternatively, after Alamar blue reading, plates were rinsed with PBS, 50 ul of DMEM (high glucose) without phenol red was added and plates were then used for luciferase assay using the Promega Dual-Glo Luciferase Assay System.
Compound analysis was determined by quantification of the relative HCV replicon inhibition and the relative cytotoxicity values. To calculate cytoxicity values, the average Alamar Blue fluorescence signals from the control wells were set as 100% non-toxic. The individual signals in each of the compound test wells were then divided by the average control signal and multiplied by 100% to determine […]. To calculate the HCV replicon inhibition values, an average background value was obtained from the two wells containing the highest amount of HCV protease inhibitor at the end of the assay period. These numbers were similar to those obtained from naïve Huh-7 cells.
The background numbers were then subtracted from the average signal obtained from the control wells and this number was used as 100% activity. The individual signals in each of the compound test wells were then divided by the averaged control values after background subtraction and multiplied by 100% to determine percent activity. EC50 values for a protease inhibitor titration were calculated as the concentration which caused a 50% reduction in FRET or luciferase activity. The two numbers generated for the compound plate, percent cytoxicity and percent activity were used to determine compounds of interest for further analysis.

T1 sequence (Q9WMX2 2420-2992): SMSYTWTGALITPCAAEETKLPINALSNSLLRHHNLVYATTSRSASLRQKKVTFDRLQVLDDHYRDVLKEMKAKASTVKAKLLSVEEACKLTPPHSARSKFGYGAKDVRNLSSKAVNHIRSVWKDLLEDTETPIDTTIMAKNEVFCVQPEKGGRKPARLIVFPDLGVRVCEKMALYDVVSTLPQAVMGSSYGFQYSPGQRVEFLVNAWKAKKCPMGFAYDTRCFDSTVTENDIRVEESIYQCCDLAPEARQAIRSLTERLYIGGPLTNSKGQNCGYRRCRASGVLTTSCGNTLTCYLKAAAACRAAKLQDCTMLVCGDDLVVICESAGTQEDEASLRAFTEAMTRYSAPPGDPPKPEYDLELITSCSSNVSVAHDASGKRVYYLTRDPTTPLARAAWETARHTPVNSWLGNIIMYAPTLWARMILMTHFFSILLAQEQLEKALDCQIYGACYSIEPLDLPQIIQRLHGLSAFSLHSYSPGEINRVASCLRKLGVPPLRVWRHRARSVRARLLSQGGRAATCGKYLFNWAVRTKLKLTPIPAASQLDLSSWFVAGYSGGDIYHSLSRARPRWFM

| SMILES | IC50 (HCV NS5B; reported as class) [nM] | EC50 (HCV replicon cells; reported as class) [nM] | IC50 (HCV NS5B) [nM] | EC50 (HCV replicon cells) [nM] |
| --- | --- | --- | --- | --- |
| COc1ccc2c(c1)C1CN(C(=O)N(C)C)CC1(C(=O)N1C[C@@H](C)O[C@@H](C)C1)Cn1c-2c(C2CCCCC2)c2ccc(C(=O)NS(=O)(=O)N(C)C)cc21 (mixture of isomers) [Example 11, rac-(3aR,14bR)-10-cyclohexyl-3a-(((2S,6R)-2,6-dimethyl-4-morpholinyl)carbonyl)-N^7-(dimethylsulfamoyl)-13-methoxy-N^2,N^2-dimethyl-1,3a,4,14b-tetrahydroindolo[2,1-c]pyrrolo[3,4-d][2]benzazepine-2,7(3H)-dicarboxamide] | 20 to 500 | 20 to 500 |  |  |
| COc1ccc2c(c1)C1CN(C(C)CN(C)C)CC1(C(=O)N1C[C@@H](C)O[C@@H](C)C1)Cn1c-2c(C2CCCCC2)c2ccc(C(=O)NS(=O)(=O)N(C)C)cc21 (mixture of isomers) [Example 12, rac-(3aR,14bR)-10-cyclohexyl-2-(2-(dimethylamino)-1-methylethyl)-3a-(((2S,6R)-2,6-dimethyl-4-morpholinyl)carbonyl)-N-(dimethylsulfamoyl)-13-methoxy-1,2,3,3a,4,14b-hexahydroindolo[2,1-a]pyrrolo[3,4-d][2]benzazepine-7-carboxamide] | 20 to 500 | 20 to 500 |  |  |
| COc1ccc2c(c1)C1CN(C(=O)CN(C)C)CC1(C(=O)N1C[C@@H](C)O[C@@H](C)C1)Cn1c-2c(C2CCCCC2)c2ccc(C(=O)NS(=O)(=O)N(C)C)cc21 (mixture of isomers) [Example 13, rac-(3aR,14bR)-10-Cyclohexyl-2-(N,N-dimethylglycyl)-3a-(((2S,6R)-2,6-dimethyl-4-morpholinyl)carbonyl)-N-(dimethylsulfamoyl)-13-methoxy-1,2,3,3a,4,14b-hexahydroindolo[2,1-a]pyrrolo[3,4-d][2]benzazepine-7-carboxamide] | 20 to 500 | 20 to 500 |  |  |
| COc1ccc2c(c1)C1CN(C(=O)CN(C)C)CC1(C(=O)N(C)C)Cn1c-2c(C2CCCCC2)c2ccc(C(=O)NS(=O)(=O)N(C)C)cc21 (racemic) [Example 14, rac-(3aR,14bR)-10-Cyclohexyl-2-(N,N-dimethylglycyl)-N^7-(dimethylsulfamoyl)-13-methoxy-N^3a,N^3a-dimethyl-1,2,3,14b-tetrahydroindolo[2,1-a]pyrrolo[3,4-d][2]benzazepine-3a,7(4H)-dicarboxamide] |  |  | 51 | 47 |
| COc1ccc2c(c1)C1CN(C(=O)C(=O)N(C)C)CC1(C(=O)N(C)C)Cn1c-2c(C2CCCCC2)c2ccc(C(=O)NS(=O)(=O)N(C)C)cc21 (racemic) [Example 15, rac-(3aR,14bR)-10-Cyclohexyl-2-((dimethylamino)(oxo)acetyl)-N^7-(dimethylsulfamoyl)-13-methoxy-N^3a,N^3a-dimethyl-1,2,3,14b-tetrahydroindolo[2,1-a]pyrrolo[3,4-d][2]benzazepine-3a,7(4H)-dicarboxamide] | 20 to 500 | 20 to 500 |  |  |
| COc1ccc2c(c1)C1CN(C(=O)c3nccn3C)CC1(C(=O)N(C)C)Cn1c-2c(C2CCCCC2)c2ccc(C(=O)NS(=O)(=O)N(C)C)cc21 (racemic) [Example 16, rac-(3aR,14bR)-10-Cyclohexyl-N^7-(dimethylsulfamoyl)-13-methoxy-N^3a,N^3a-dimethyl-2-((1-methyl-1H-imidazol-2-yl)carbonyl)-1,2,3,14b-tetrahydroindolo[2,1-a]pyrrolo[3,4-d][2]benzazepine-3a,7(4H)-dicarboxamide] | 20 to 500 | 20 to 500 |  |  |
| COc1ccc2c(c1)C1CN(C(C)CN(C)C)CC1(C(=O)N(C)C)Cn1c-2c(C2CCCCC2)c2ccc(C(=O)NS(=O)(=O)N(C)C)cc21 (racemic) [Example 17a, rac-(3aR,14bR)-10-cyclohexyl-2-(2-(dimethylamino)-1R-methylethyl)-N^7-(dimethylsulfamoyl)-13-methoxy-N^3a,N^3a-dimethyl-1,2,3,14b-tetrahydroindolo[2,1-a]pyrrolo[3,4-d][2]benzazepine-3a,7(4H)-dicarboxamide] | 20 to 500 | 20 to 500 |  |  |
| COc1ccc2c(c1)C1CN(Cc3cncn3C)CC1(C(=O)N(C)C)Cn1c-2c(C2CCCCC2)c2ccc(C(=O)NS(=O)(=O)N(C)C)cc21 (racemic) [Example 18, rac-(3aR,14bR)-10-Cyclohexyl-N^7-(dimethylsulfamoyl)-13-methoxy-N^3a,N^3a-dimethyl-2-((1-methyl-1H-imidazol-5-yl)methyl)-1,2,3,14b-tetrahydroindolo[2,1-a]pyrrolo[3,4-d][2]benzazepine-3a,7(4H)-dicarboxamide] | 20 to 500 | 20 to 500 |  |  |
| COc1ccc2c(c1)C1CN(C(=O)[C@@H]3CCCN3C)CC1(C(=O)N(C)C)Cn1c-2c(C2CCCCC2)c2ccc(C(=O)NS(=O)(=O)N(C)C)cc21 (mixture of isomers) [Example 19, rac-(3aR,14bR)-10-cyclohexyl-N^7-(dimethylsulfamoyl)-13-methoxy-N^3a,N^3a-dimethyl-2-(1-methyl-L-prolyl)-1,2,3,14b-tetrahydroindolo[2,1-a]pyrrolo[3,4-d][2]benzazepine-3a,7(4H)-dicarboxamide] |  |  | 61 | 63 |
